Assay results from patent US20170143787A1, “CHEMOKINE RECEPTOR ANTAGONIST AND ITS COMBINATIONAL THERAPY” (Pertinax Therapeutics Inc., priority 2014, published 2017).

Assays:
[1] = test system: rat HCC cell line, CRL-1601; details: 12.5 or 25 mg/kg/day s.c. for 4 weeks
Excerpt: The CXCR4 antagonists used was the short peptide dimer antagonist CTCE-9908 (SEQ ID NO.1). A rat orthotopic hepatocellular carcinoma (HCC) model was established by injection of a rat HCC cell line, CRL-1601, into the left lobe of the liver of Buffalo rats. Since the rat HCC cell line was generated from Buffalo rats, in vivo formed tumor in the Buffalo rats can mimic the clinical setting. […]
The first group (control) received sham operation followed by water for irrigation. […] The dimension of the primary tumour was measured along with liver function. The microvessel density, proliferation index of tumor cells, apoptotic state and morphology of tumour cells in primary tumour and metastases were analysed by immunohistochemistry. […] The number of metastatic tumour loci was analysed. Plasma SDF-1 was analyzed by ELISA. […]
This study examined a rat model of hepatocellular carcinoma (HCC) that mimics transarterial chemoembolization in the clinical setting. […] One week after the last CTCE-9908 treatment, the rats were sacrificed and assessments of the tumor as well as the circulating cells were made by luminescence and flow cytometry, respectively.

[2] = test system: refractory neoplasms (various solid tumors); experiment: open label, dose-finding trial (Accelerated Titration Design) in subjects with refractory neoplasms; assay type: in vivo, human
Procedure: According to the study design, the cohort was to be expanded in the case of moderate toxicity to include more subjects and additional dose increments (40%) until the maximum dose of 5 mg/kg or dose limiting toxicity was achieved.
Subjects were dosed daily for 4 consecutive weeks (not including weekends and holidays) and dose limiting toxicity was assessed after subjects have completed their treatment.
Toxicity reported during the study was graded according to the National Cancer Institute (NCI) CTCAE (Common Terminology Criteria for Adverse Events) v3.0. A Dose Limiting Toxicity (DLT) was defined as follows: • a) Any grade ≧3 reversible non-haematologic treatment-related toxicity OR • b) Any irreversible grade ≧2 non-haematologic treatment-related toxicity OR • c) Any grade ≧4 haematologic treatment-related toxicity lasting longer than 10 days during the 4 weeks of treatment
For the purpose of this study, Moderate Toxicity has been defined according to NCI CTCAE v3.0. Adverse events were treated when they occurred. No investigational or commercial agents or therapies were administered with the intent to treat the subject's malignancy during the period that the subjects were in the study.

KGVSLSYR-X-RYSLSVGK [CTCE-9908] was tested, and the tumor regression ([1]; CTCE-9908 in combination with hepatic artery ligation (HAL), luminescence and necropsy) was “up to 80%”, the tolerability ([1]; rats) was “well tolerated by all rats” and the “number of Moderate Toxicities observed during the study” value ([2]; NCI CTCAE v3.0, whole study) was “eight”. For the same substance, the “overall stable disease, number of subjects” value ([2]; at the end of their last treatment cycle, 1, 2.5 and 5 mg/kg/day doses) was “five”, the “Dose Limiting Toxicity (DLT)” value ([2]; daily dosing for 4 consecutive weeks, up to 5 mg/kg, NCI CTCAE v3.0) was “no DLT was reported” and the tumor markers ([2]; one ovarian cancer subject and one colorectal cancer subject) was “reduction in tumor markers”. The “duration of stable disease” value ([2]; one small bowel subject) was “up to seven” and the “Maximum Tolerated Dose (MTD)” value ([2]; subjects with refractory neoplasms, up to 5 mg/kg) was “not established”.
